How the values were obtained:
Recombinant human renin = target: T1, Recombinant human renin (Homo sapiens, UniProt P00797); test: In vitro renin inhibitory activity assay; type: biochemical; details: recombinant human renin 4.2 ng/mL, substrate 4 μM, 37° C., one hour, pH 7.4
T1 sequence (P00797 67-406): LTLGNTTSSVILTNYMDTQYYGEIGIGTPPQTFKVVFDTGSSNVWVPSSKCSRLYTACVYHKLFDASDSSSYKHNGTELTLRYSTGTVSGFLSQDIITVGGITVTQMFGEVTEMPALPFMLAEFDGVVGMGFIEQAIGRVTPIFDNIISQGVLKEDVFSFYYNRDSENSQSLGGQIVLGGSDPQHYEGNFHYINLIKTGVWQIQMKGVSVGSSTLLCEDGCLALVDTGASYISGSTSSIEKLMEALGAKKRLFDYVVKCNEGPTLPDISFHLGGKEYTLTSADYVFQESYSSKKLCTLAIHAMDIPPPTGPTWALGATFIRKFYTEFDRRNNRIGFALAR
Experimental: Experiment 1: In Vitro Renin Inhibitory Activity Assay
Recombinant human renin (4.2 ng/mL) was reacted in 0.1M HEPES buffer (pH 7.4) containing 0.1M NaCl, 1 mM EDTA and 0.1 mg/mL BSA together with a substrate and a test compound at 37° C. for one hour. As the substrate, Arg-Glu(EDANS)-Ile-His-Pro-Phe-His-Leu-Val-Ile-His-Thr-Lys(DABCYL)-Arg (SEQ ID NO: 1) or DABCYL-γ-Abu-Ile-His-Pro-Phe-His-Leu-Val-Ile-His-Thr-EDANS (SEQ ID NO: 2) was added in such an amount so that the final concentration thereof became 4 μM. The elevated fluorescence intensity at the exciting wavelength 340 nm and the fluorescence wavelength 500 nm was measured by a fluorescence plate reader. The concentration of a test compound to be needed to inhibit an enzyme activity in the presence of a test compound in several concentrations by 50% was calculated as an IC50 value. The test compounds were diluted in DMSO and used in this Experiment.

[1] = test system: abdominal skin of CD male rats; test: Testing for irritation by single subcutaneous administration to rats; type: in vivo; design: key: — No inflammation; Amount of Inflammation: * < ** < *** < ****; Amount of Inflammation: * < ** < *** < ****; Amount of Inflammation: * < ** < *** < ****; Amount of Inflammation: * < ** < *** < ****; details: single subcutaneous administration 0.1 ml, 2% in DMSO and saline
Experimental: Experiment 2: Testing for Irritation by Single Subcutaneous Administration to Rats
A test compound was measured and dissolved in DMSO and a saline solution in a concentration of 2%.

With `CCC(=O)NCCN1C(=O)C2(CCC2)Oc2cc(C)c(C(=O)N(C(C)C)[C@@H]3CCCN(C(=O)OCc4oc(=O)oc4C)C3)cc21` [Example 81] the IC50 (Recombinant human renin) was 0.0017 µM, the “Observation at Administration Site, One day after administration” value (from here on “Observation … One day after administration”) [1] was “**” and the “Observation at Administration Site, Three days after administration” value (from here on “Observation … Three days after administration”) [1] was “—”.

`CCC(=O)NCCN1C(=O)C2(CCC2)Oc2cc(C)c(C(=O)N(C(C)C)[C@@H]3CCCNC3)cc21.Cl` [Comparative Example 3, N-isopropyl-7-methyl-3-oxo-N-[(3R)-piperidin-3-yl]-4-[2-(propionylamino)ethyl]-3,4-dihydrospiro[1,4-benzoxazine-2,1′-cyclobutane]-6-carboxamide hydrochloride, reference compound] was tested, and the “Observation … One day after administration” value [1] was “****” and the “Observation … Three days after administration” value [1] was “****”.

`CCC(=O)NCCN1C(=O)C2(CCC2)Oc2cc(C)c(C(=O)N(C(C)C)C3CCCN(C(=O)OC(C)OC(=O)c4ccc(C)cc4)C3)cc21` (stereo not drawn) [Example 79, 1-{[(4-Methylphenyl)carbonyl]oxy}ethyl 3-[({7-methyl-3-oxo-4-[2-(propanoylamino)ethyl]-3,4-dihydrospiro[1,4-benzoxazine-2,1′-cyclobutan]-6-yl}carbonyl)(2-propanyl)amino]-1-piperidinecarboxylate] was tested, and the IC50 (Recombinant human renin) was 0.0053 µM, the “Observation … One day after administration” value [1] was “***” and the “Observation … Three days after administration” value [1] was “***”.

For `CCC(=O)NCCN1C(=O)C(C)(C)Oc2cc(C(F)(F)F)c(C(=O)N(C(C)C)[C@@H]3CCCNC3)cc21.Cl` [Comparative Example 2, 2,2-dimethyl-3-oxo-N-[(3R)-3-piperidinyl]-4-[2-(propanoylamino)ethyl]-N-(2-propanyl)-7-(trifluoromethyl)-3,4-dihydro-2H-1,4-benzoxazine-6-carboxamide hydrochloride, reference compound], the “Observation … One day after administration” value [1] was “****” and the “Observation … Three days after administration” value [1] was “****”.

For `CCC(=O)NCCN1C(=O)C(C)(C)Oc2cc(C)c(C(=O)N(C(C)C)[C@@H]3CCCN(C(=O)OCc4oc(=O)oc4C)C3)cc21` [Example 2, (5-Methyl-2-oxo-1,3-dioxol-4-yl)methyl (3R)-3-[isopropyl({2,2,7-trimethyl-3-oxo-4-[2-(propionylamino)ethyl]-3,4-dihydro-2H-1,4-benzoxazin-6-yl}carbonyl)amino]piperidine-1-carboxylate], the IC50 (Recombinant human renin) was 0.0051 µM, the “Observation … One day after administration” value [1] was “—” and the “Observation … Three days after administration” value [1] was “—”.

For `CCC(=O)NCCN1C(=O)C2(CCC2)Oc2cc(C)c(C(=O)N(C(C)C)[C@@H]3CCCN(C(=O)O[C@H](C)OC(=O)C(C)C)C3)cc21` [Example 82], the IC50 (Recombinant human renin) was 0.53 µM, the “Observation … One day after administration” value [1] was “**” and the “Observation … Three days after administration” value [1] was “—”.

`CCC(=O)NCCN1C(=O)[C@](C)(COC)Oc2cc(C)c(C(=O)N(C(C)C)[C@@H]3CCCN(C(=O)O[C@H](C)OC(=O)C(C)C)C3)cc21` [Example 93] was tested, and the IC50 (Recombinant human renin) was 1.9 µM, the “Observation … One day after administration” value [1] was “—” and the “Observation … Three days after administration” value [1] was “—”.

For `CCC(=O)NCCN1C(=O)C(C)(C)Oc2cc(C)c(C(=O)N(C(C)C)[C@@H]3CCCN(C(=O)O[C@H](C)OC(=O)C(C)C)C3)cc21` [Example 67], the IC50 (Recombinant human renin) was 0.25 µM, the “Observation … One day after administration” value [1] was “**” and the “Observation … Three days after administration” value [1] was “—”.

In the case of `COCCCCN1C(=O)C(C)(C)Oc2cc(C(F)(F)F)c(C(=O)N(C(C)C)[C@@H]3CCCNC3)cc21.Cl` [Comparative Example 1, 4-(4-methoxybutyl)-2,2-dimethyl-3-oxo-N-[(3R)-3-piperidinyl]-N-(2-propanyl)-7-(trifluoromethyl)-3,4-dihydro-2H-1,4-benzoxazine-6-carboxamide hydrochloride, reference compound], the “Observation … One day after administration” value [1] is reported as “***” and the “Observation … Three days after administration” value [1] is reported as “****”.

With `CCC(=O)NCCN1C(=O)C(C)(C)Oc2cc(C)c(C(=O)N(C(C)C)[C@@H]3CCCN(C(=O)OC(C)(C)OC(C)=O)C3)cc21` [Example 21, 1-(Acetyloxy)-1-methylethyl (3R)-3-[isopropyl({2,2,7-trimethyl-3-oxo-4-[2-(propionylamino)ethyl]-3,4-dihydro-2H-1,4-benzoxazin-6-yl}carbonyl)amino]piperidine-1-carboxylate] the IC50 (Recombinant human renin) was 0.062 µM.

For `CCC(=O)NCCN1C(=O)C2(CCC2)Oc2cc(C)c(C(=O)N(C(C)C)[C@@H]3CCCN(C(=O)O[C@@H](C)OC(=O)C(C)C)C3)cc21` [Example 83], the IC50 (Recombinant human renin) was 0.505 µM.

`CCC(=O)NCCN1C(=O)C(C)(C)Oc2cc(C)c(C(=O)N(C(C)C)[C@@H]3CCCN(C(=O)OCOC(=O)OC4CCOCC4)C3)cc21` [Example 13] gave an IC50 (Recombinant human renin) of 0.0051 µM.

Compound `CCC(=O)NCCN1C(=O)C2(CCC2)Oc2cc(C)c(C(=O)N(C(C)C)C3CCCN(C(=O)OC(C)OC(=O)C(C)C)C3)cc21` (stereo not drawn) [Example 47] has an IC50 (Recombinant human renin) of 0.076 µM.

`Cc1cc2c(cc1C(=O)N(C(C)C)[C@@H]1CCCN(C(=O)OCc3oc(=O)oc3C)C1)N(CCNC(=O)C(F)F)C(=O)C1(CCC1)O2` [Example 44] showed an IC50 (Recombinant human renin) of 0.0019 µM.

For `CCC(=O)NCCN1C(=O)C(C)(C)Oc2cc(C)c(C(=O)N(C(C)C)C3CCCN(C(=O)OC(C)OC(=O)C4CCOCC4)C3)cc21` (single isomer, unassigned) [Example 87], the IC50 (Recombinant human renin) was 0.0096 µM, the “Observation … One day after administration” value [1] was “—” and the “Observation … Three days after administration” value [1] was “—”.

Work on `CCC(=O)NCCN1C(=O)C(C)(COC)Oc2cc(C(F)(F)F)c(C(=O)N(C(C)C)C3CCCN(C(=O)OC(OC(=O)C(C)C)C(C)C)C3)cc21` (stereo not drawn) [Example 76] yielded an IC50 (Recombinant human renin) of 0.00056 µM.

`CCC(=O)NCCN1C(=O)C2(CCC2)Oc2cc(C)c(C(=O)N(C(C)C)C3CCCN(C(=O)OC(C)OC(=O)COC)C3)cc21` (stereo not drawn) [Example 49] gave an IC50 (Recombinant human renin) of 0.014 µM.

With `Cc1cc2c(cc1C(=O)N(C(C)C)[C@@H]1CCCN(C(=O)OCc3oc(=O)oc3C)C1)N(CCNC(=O)C(F)F)C(=O)C1(CC1)O2` [Example 39] the IC50 (Recombinant human renin) was 0.0036 µM.

`CCC(=O)NCCN1C(=O)C(C)(C)Oc2cc(C)c(C(=O)N(C(C)C)[C@@H]3CCCN(C(=O)OCOC(=O)OC)C3)cc21` [Example 9] was tested, and the IC50 (Recombinant human renin) was 0.14 µM.

Compound `CCC(=O)NCCN1C(=O)C(C)(C)Oc2cc(C)c(C(=O)N(C(C)C)C3CCCN(C(=O)OC(OC(C)=O)C(C)C)C3)cc21` (stereo not drawn) [Example 19] has an IC50 (Recombinant human renin) of 0.011 µM.

`CCC(=O)NCCN1C(=O)C2(CCC2)Oc2cc(C)c(C(=O)N(C(C)C)C3CCCN(C(=O)OC(C)OC(=O)CCCOC)C3)cc21` (stereo not drawn) [Example 84] gave an IC50 (Recombinant human renin) of 0.021 µM.

`CCC(=O)NCCN1C(=O)C(C)(C)Oc2cc(C(F)(F)F)c(C(=O)N(C(C)C)C3CCCN(C(=O)OC(C)OC(=O)C(C)C)C3)cc21` (stereo not drawn) [Example 26] was tested, and the IC50 (Recombinant human renin) was 0.021 µM.

With `CCC(=O)NCCN1C(=O)C2(CCC2)Oc2cc(C)c(C(=O)N(C(C)C)C3CCCN(C(=O)OC(OC(C)=O)C(C)C)C3)cc21` (stereo not drawn) [Example 35] the IC50 (Recombinant human renin) was 0.0027 µM.

In the case of `CCC(=O)NCCN1C(=O)C2(CCC2)Oc2cc(C)c(C(=O)N(C(C)C)C3CCCN(C(=O)OC(C)OC(C)=O)C3)cc21` (stereo not drawn) [Example 33], the IC50 (Recombinant human renin) is reported as 0.0012 µM.

With `CCC(=O)NCCN1C(=O)C(C)(C)Oc2cc(C)c(C(=O)N(C(C)C)C3CCCN(C(=O)OC(C)OC(=O)CC4CC4)C3)cc21` (stereo not drawn) [Example 98] the IC50 (Recombinant human renin) was 0.0091 µM.

— patent US8658639B2, “N-substituted-cyclic amino derivative” (Dainippon Sumitomo Pharma Co., Ltd, priority 2009, dated 2014)
